Assay results from the NIST ThermoML archive (doi:10.1016/j.tca.2012.05.025).
± gives the expanded uncertainty stated by the source.

Assay: refractive index (Na D-line) (dimensionless); xn = mol fraction of the nth substance listed
Conditions: 101 kPa, Liquid, Standard Abbe refractometry

CN(C)CCCO [3-dimethylamino-1-propanol] + O
refractive index (293.15 K, x1 = 0.098): 1.3569 ± 0.005
refractive index (293.15 K, x1 = 0.197): 1.3653 ± 0.005
refractive index (293.15 K, x1 = 0.293): 1.3763 ± 0.005
refractive index (293.15 K, x1 = 0.398): 1.4033 ± 0.005
refractive index (293.15 K, x1 = 0.5): 1.4193 ± 0.005
refractive index (293.15 K, x1 = 0.598): 1.4284 ± 0.005
refractive index (293.15 K, x1 = 0.7): 1.4345 ± 0.005
refractive index (293.15 K, x1 = 0.795): 1.4393 ± 0.005
refractive index (293.15 K, x1 = 0.9): 1.443 ± 0.005
refractive index (293.15 K, x1 = 1): 1.4368 ± 0.005
refractive index (298.15 K, x1 = 0.098): 1.3562 ± 0.005
refractive index (298.15 K, x1 = 0.197): 1.3644 ± 0.005
refractive index (298.15 K, x1 = 0.293): 1.3752 ± 0.005
refractive index (298.15 K, x1 = 0.398): 1.4018 ± 0.005
refractive index (298.15 K, x1 = 0.5): 1.4172 ± 0.005
refractive index (298.15 K, x1 = 0.598): 1.4268 ± 0.005
refractive index (298.15 K, x1 = 0.7): 1.4329 ± 0.005
refractive index (298.15 K, x1 = 0.795): 1.4377 ± 0.005
refractive index (298.15 K, x1 = 0.9): 1.4405 ± 0.005
refractive index (298.15 K, x1 = 1): 1.4347 ± 0.005
refractive index (303.15 K, x1 = 0.098): 1.35534 ± 0.005
refractive index (303.15 K, x1 = 0.197): 1.3635 ± 0.005
refractive index (303.15 K, x1 = 0.293): 1.3742 ± 0.005
refractive index (303.15 K, x1 = 0.398): 1.4004 ± 0.005
refractive index (303.15 K, x1 = 0.5): 1.4155 ± 0.005
refractive index (303.15 K, x1 = 0.598): 1.4251 ± 0.005
refractive index (303.15 K, x1 = 0.7): 1.431 ± 0.005
refractive index (303.15 K, x1 = 0.795): 1.4359 ± 0.005
refractive index (303.15 K, x1 = 0.9): 1.439 ± 0.005
refractive index (303.15 K, x1 = 1): 1.4326 ± 0.005
refractive index (308.15 K, x1 = 0.098): 1.3545 ± 0.005
refractive index (308.15 K, x1 = 0.197): 1.3625 ± 0.005
refractive index (308.15 K, x1 = 0.293): 1.3731 ± 0.005
refractive index (308.15 K, x1 = 0.398): 1.3987 ± 0.005
refractive index (308.15 K, x1 = 0.5): 1.4139 ± 0.005
refractive index (308.15 K, x1 = 0.598): 1.4233 ± 0.005
refractive index (308.15 K, x1 = 0.7): 1.4291 ± 0.005
refractive index (308.15 K, x1 = 0.795): 1.4338 ± 0.005
refractive index (308.15 K, x1 = 0.9): 1.4369 ± 0.005
refractive index (308.15 K, x1 = 1): 1.4305 ± 0.005
refractive index (313.15 K, x1 = 0.098): 1.3537 ± 0.005
refractive index (313.15 K, x1 = 0.197): 1.3615 ± 0.005
refractive index (313.15 K, x1 = 0.293): 1.3719 ± 0.005
refractive index (313.15 K, x1 = 0.398): 1.3972 ± 0.005
refractive index (313.15 K, x1 = 0.5): 1.4121 ± 0.005
refractive index (313.15 K, x1 = 0.598): 1.4216 ± 0.005
refractive index (313.15 K, x1 = 0.7): 1.4273 ± 0.005
refractive index (313.15 K, x1 = 0.795): 1.4319 ± 0.005
refractive index (313.15 K, x1 = 0.9): 1.4349 ± 0.005
refractive index (313.15 K, x1 = 1): 1.4285 ± 0.005
refractive index (318.15 K, x1 = 0.098): 1.3528 ± 0.005
refractive index (318.15 K, x1 = 0.197): 1.3605 ± 0.005
refractive index (318.15 K, x1 = 0.293): 1.3708 ± 0.005
refractive index (318.15 K, x1 = 0.398): 1.3956 ± 0.005
refractive index (318.15 K, x1 = 0.5): 1.4105 ± 0.005
refractive index (318.15 K, x1 = 0.598): 1.4199 ± 0.005
refractive index (318.15 K, x1 = 0.7): 1.4255 ± 0.005
refractive index (318.15 K, x1 = 0.795): 1.4302 ± 0.005
refractive index (318.15 K, x1 = 0.9): 1.4324 ± 0.005
refractive index (318.15 K, x1 = 1): 1.4264 ± 0.005
refractive index (323.15 K, x1 = 0.098): 1.3517 ± 0.005
refractive index (323.15 K, x1 = 0.197): 1.3593 ± 0.005
refractive index (323.15 K, x1 = 0.293): 1.3696 ± 0.005
refractive index (323.15 K, x1 = 0.398): 1.3947 ± 0.005
refractive index (323.15 K, x1 = 0.5): 1.4088 ± 0.005
refractive index (323.15 K, x1 = 0.598): 1.418 ± 0.005
refractive index (323.15 K, x1 = 0.7): 1.4239 ± 0.005
refractive index (323.15 K, x1 = 0.795): 1.4286 ± 0.005
refractive index (323.15 K, x1 = 0.9): 1.4315 ± 0.005
refractive index (323.15 K, x1 = 1): 1.4243 ± 0.005
refractive index (328.15 K, x1 = 0.098): 1.3506 ± 0.005
refractive index (328.15 K, x1 = 0.197): 1.3582 ± 0.005
refractive index (328.15 K, x1 = 0.293): 1.3682 ± 0.005
refractive index (328.15 K, x1 = 0.398): 1.3925 ± 0.005
refractive index (328.15 K, x1 = 0.5): 1.4072 ± 0.005
refractive index (328.15 K, x1 = 0.598): 1.4164 ± 0.005
refractive index (328.15 K, x1 = 0.7): 1.4226 ± 0.005
refractive index (328.15 K, x1 = 0.795): 1.427 ± 0.005
refractive index (328.15 K, x1 = 0.9): 1.4301 ± 0.005
refractive index (328.15 K, x1 = 1): 1.4222 ± 0.005
refractive index (333.15 K, x1 = 0.098): 1.3502 ± 0.005
refractive index (333.15 K, x1 = 0.197): 1.3571 ± 0.005
refractive index (333.15 K, x1 = 0.293): 1.3671 ± 0.005
refractive index (333.15 K, x1 = 0.398): 1.391 ± 0.005
refractive index (333.15 K, x1 = 0.5): 1.4056 ± 0.005
refractive index (333.15 K, x1 = 0.598): 1.4146 ± 0.005
refractive index (333.15 K, x1 = 0.7): 1.4204 ± 0.005
refractive index (333.15 K, x1 = 0.795): 1.4245 ± 0.005
refractive index (333.15 K, x1 = 0.9): 1.4278 ± 0.005
refractive index (333.15 K, x1 = 1): 1.42 ± 0.005
